Source: patent publication US12662479B2 (Foghorn Therapeutics Inc., priority 2020, dated 2026)
Where a name gives a salt, the structure may show the parent alone. Read-outs that look alike come from different tables or passages of the source.

Legend:
[1] = biological target: T1, HiBit-BRG1 fusion protein (Homo sapiens, UniProt P51532); test: HiBiT-BRG1 cell-based degradation assay (Nano-Glo HiBiT Lytic Detection, 24 h); details: for Dmax: HeLa, top dose 30 μM, read-out: BRG1 HiBit Degradation Maximum measured
T1 construct: expressed in transfected cells
T1 sequence (P51532 whole entry, the tested form may be a part): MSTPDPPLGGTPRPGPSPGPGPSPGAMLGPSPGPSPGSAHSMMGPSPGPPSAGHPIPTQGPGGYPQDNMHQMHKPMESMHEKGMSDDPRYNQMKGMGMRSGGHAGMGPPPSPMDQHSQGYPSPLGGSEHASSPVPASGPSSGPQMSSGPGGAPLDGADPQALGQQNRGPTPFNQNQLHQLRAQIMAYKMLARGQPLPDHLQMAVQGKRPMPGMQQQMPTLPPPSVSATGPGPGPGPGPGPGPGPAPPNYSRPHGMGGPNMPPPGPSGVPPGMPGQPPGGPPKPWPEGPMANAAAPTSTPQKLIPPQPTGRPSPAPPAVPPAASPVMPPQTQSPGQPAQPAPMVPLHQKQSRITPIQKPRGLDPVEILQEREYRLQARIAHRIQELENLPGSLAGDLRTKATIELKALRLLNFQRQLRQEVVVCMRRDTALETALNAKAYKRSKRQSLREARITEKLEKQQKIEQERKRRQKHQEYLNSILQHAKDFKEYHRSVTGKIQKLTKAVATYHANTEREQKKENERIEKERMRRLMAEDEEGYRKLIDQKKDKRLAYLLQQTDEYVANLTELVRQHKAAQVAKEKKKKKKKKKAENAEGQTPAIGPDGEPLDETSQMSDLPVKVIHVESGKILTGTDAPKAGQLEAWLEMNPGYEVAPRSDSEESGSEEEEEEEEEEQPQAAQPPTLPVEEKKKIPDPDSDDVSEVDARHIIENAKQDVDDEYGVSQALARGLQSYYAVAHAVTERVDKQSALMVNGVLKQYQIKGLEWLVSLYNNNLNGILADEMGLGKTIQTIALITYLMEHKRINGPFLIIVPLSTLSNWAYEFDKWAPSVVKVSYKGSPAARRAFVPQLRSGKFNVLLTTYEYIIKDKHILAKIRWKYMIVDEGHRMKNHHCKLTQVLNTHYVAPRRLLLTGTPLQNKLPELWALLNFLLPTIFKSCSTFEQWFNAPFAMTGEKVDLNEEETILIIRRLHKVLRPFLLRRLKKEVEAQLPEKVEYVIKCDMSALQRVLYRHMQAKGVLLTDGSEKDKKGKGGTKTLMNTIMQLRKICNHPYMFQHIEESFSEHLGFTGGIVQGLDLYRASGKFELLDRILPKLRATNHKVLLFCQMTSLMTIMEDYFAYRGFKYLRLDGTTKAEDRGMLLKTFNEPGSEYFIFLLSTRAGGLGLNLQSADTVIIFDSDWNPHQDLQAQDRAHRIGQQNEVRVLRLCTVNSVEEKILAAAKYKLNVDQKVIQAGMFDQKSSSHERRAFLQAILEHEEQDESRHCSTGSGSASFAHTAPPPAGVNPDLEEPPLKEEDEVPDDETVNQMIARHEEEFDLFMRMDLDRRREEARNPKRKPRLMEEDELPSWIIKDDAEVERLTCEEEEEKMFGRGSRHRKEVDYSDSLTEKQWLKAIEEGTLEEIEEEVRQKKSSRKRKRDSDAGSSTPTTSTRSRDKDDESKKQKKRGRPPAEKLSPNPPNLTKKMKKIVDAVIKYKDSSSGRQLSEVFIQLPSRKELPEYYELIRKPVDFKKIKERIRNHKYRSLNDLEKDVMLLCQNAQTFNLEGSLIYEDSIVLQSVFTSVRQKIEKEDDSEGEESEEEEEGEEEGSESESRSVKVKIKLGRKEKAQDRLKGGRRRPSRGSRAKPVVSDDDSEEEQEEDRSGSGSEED
How it was run: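 Stable HeLa line expressing HiBiT-BRG1 and LgBiT, seeded at 5000 cells/well; luminescence read after lytic Nano-Glo HiBiT reagent and 10 min shaking at RT. % degradation normalised between DMSO (high control) and 2 μM reference BRM/BRG1 degrader (low control).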

HiBit-BRM fusion protein = biological target: T2, HiBit-BRM fusion protein (Homo sapiens, UniProt P51531); test: HiBiT-BRM cell-based degradation assay (Nano-Glo HiBiT Lytic Detection, 24 h); details: HeLa cells expressing HiBiT-BRM; for DC50: read-out: BRM HiBit Degradation IC50; for BRM HiBit Degradation Maximum measured: top dose 30 μM
T2 construct: expressed in transfected cells
T2 sequence (P51531 whole entry, the tested form may be a part): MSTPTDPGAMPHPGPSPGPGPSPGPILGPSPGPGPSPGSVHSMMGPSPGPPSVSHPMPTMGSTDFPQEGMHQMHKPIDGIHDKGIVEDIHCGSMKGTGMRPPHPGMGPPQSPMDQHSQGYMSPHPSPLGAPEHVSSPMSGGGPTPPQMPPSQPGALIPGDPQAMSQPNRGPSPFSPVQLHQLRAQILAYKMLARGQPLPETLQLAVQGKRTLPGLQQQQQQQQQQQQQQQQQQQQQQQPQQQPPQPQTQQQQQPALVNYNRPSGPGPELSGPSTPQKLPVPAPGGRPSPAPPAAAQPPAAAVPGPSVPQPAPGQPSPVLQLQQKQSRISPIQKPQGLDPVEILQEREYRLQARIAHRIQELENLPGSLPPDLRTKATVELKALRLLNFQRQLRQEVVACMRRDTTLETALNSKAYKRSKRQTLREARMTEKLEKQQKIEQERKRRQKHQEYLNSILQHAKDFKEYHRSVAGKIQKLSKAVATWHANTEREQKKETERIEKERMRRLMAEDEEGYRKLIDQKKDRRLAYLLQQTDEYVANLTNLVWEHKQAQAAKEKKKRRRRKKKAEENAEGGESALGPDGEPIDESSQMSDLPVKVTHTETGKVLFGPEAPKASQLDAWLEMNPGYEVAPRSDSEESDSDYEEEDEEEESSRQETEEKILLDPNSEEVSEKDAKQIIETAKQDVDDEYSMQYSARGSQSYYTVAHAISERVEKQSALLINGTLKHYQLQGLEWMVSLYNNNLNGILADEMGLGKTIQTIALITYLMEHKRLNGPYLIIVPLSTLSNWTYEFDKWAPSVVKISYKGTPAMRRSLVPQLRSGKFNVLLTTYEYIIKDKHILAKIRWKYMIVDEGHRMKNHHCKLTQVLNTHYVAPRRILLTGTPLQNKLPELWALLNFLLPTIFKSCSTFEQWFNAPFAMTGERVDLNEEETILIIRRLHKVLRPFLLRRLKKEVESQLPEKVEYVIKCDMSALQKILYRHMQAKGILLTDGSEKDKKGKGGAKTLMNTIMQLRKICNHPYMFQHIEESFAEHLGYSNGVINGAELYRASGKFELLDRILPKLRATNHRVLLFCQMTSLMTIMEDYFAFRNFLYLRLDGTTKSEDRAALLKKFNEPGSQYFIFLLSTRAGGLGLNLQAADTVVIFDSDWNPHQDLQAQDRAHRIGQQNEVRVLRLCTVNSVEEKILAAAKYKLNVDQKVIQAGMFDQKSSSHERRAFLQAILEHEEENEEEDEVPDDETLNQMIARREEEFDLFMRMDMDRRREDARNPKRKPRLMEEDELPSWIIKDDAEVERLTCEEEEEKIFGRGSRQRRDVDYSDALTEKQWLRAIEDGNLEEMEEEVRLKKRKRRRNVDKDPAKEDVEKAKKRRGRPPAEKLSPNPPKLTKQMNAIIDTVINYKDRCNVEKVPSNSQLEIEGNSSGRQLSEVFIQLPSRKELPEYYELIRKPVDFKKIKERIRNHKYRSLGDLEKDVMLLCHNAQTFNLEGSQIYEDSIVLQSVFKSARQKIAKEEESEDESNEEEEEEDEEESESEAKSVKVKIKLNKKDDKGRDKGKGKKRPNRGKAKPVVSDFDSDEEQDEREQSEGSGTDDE
How it was run: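 HeLa cells stably expressing HiBiT-BRM were treated for 24 h with compounds (10-point 3-fold dilutions, 30 μM final top dose, in duplicate). HiBiT was detected by lytic LgBiT complementation luminescence. % degradation was normalized to DMSO (high control) and 2 μM of a reference BRM/BRG1 degrader (low control).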

[2] = HeLa cells expressing HiBit-BRG1 and LgBit, read-out: BRG1 HiBit Degradation IC50
[3] = HeLa cells expressing HiBit-BRG1 and LgBit

SMILES | DC50 [1, 2] [µM] | Dmax [1, 3] [%] | DC50 (HiBit-BRM fusion protein) [µM] | BRM HiBit Degradation Maximum measured (HiBit-BRM fusion protein) | DC50 ([1]; read-out: BRG1 HiBit Degradation IC50, HeLa cells expressing HiBit-BRG1 and LgBit) [µM]
CS(=O)(=O)n1ccc(C(=O)N[C@@H](COCCCC(=O)NCCCCCCCCNc2cccc3c2C(=O)N(C2CCC(=O)NC2=O)C3=O)C(=O)Nc2nc(-c3ccccc3)cs2)c1 (stereo partly drawn) [Compound 186, N-(8-[[2-(2,6-dioxopiperidin-3-yl)-1,3-dioxoisoindol-4-yl]amino]octyl)-4-[(2S)-2-[(1-methanesulfonylpyrrol-3-yl)formamido]-2-[(4-phenyl-1,3-thiazol-2-yl)carbamoyl]ethoxy]butanamide] | > 10 | < 50 | > 10 | C (‘C’ = Maximum degradation <50%) | –
CS(=O)(=O)n1ccc(C(=O)N[C@@H](COCCCC(=O)NCCCCCNc2ccc3c(c2)C(=O)N(C2CCC(=O)NC2=O)C3=O)C(=O)Nc2nc(-c3ccccc3)cs2)c1 (stereo partly drawn) [Compound 187, N-(5-[[2-(2,6-dioxopiperidin-3-yl)-1,3-dioxoisoindol-5-yl]amino]pentyl)-4-[(2S)-2-[(1-methanesulfonylpyrrol-3-yl)formamido]-2-[(4-phenyl-1,3-thiazol-2-yl)carbamoyl]ethoxy]butanamide] | > 10 | < 50 | > 10 | C (‘C’ = Maximum degradation <50%) | –
Cc1ncsc1-c1ccc(CNC(=O)[C@@H]2C[C@@H](O)CN2C(=O)[C@@H](NC(=O)COCCOCCNC(=O)c2ccc(COC[C@H](NC(=O)c3ccn(S(C)(=O)=O)c3)C(=O)Nc3nc(-c4ccccc4)cs3)cc2)C(C)(C)C)cc1 [Compound 188, (2S,4R)-4-hydroxy-1-[(2S)-2-[2-(2-[2-[(4-[[(2S)-2-[(1-methanesulfonylpyrrol-3-yl)formamido]-2-[(4-phenyl-1,3-thiazol-2-yl)carbamoyl]ethoxy]methyl]phenyl)formamido]ethoxy]ethoxy)acetamido]-3,3-dimethylbutanoyl]-N-[[4-(4-methyl-1,3-thiazol-5-yl)phenyl]methyl]pyrrolidine-2-carboxamide] | 1 to 10 | 50 to 75 | > 10 | C (‘C’ = Maximum degradation <50%) | –
Cc1ncsc1-c1ccc(CNC(=O)[C@@H]2C[C@@H](O)CN2C(=O)[C@@H](NC(=O)COCCOCCOCCNC(=O)c2ccc(COC[C@H](NC(=O)c3ccn(S(C)(=O)=O)c3)C(=O)Nc3nc(-c4ccccc4)cs3)cc2)C(C)(C)C)cc1 [Compound 189, (2S,4R)-4-hydroxy-1-[(2S)-2-[2-[2-(2-[2-[(4-[[(2S)-2-[(1-methanesulfonylpyrrol-3-yl)formamido]-2-[(4-phenyl-1,3-thiazol-2-yl)carbamoyl]ethoxy]methyl]phenyl)formamido]ethoxy]ethoxy)ethoxy]acetamido]-3,3-dimethylbutanoyl]-N-[[4-(4-methyl-1,3-thiazol-5-yl)phenyl]methyl]pyrrolidine-2-carboxamide] | > 10 | < 50 | > 10 | C (‘C’ = Maximum degradation <50%) | –
CS(=O)(=O)n1ccc(C(=O)N[C@@H](COCc2ccc(C(=O)NCCS(=O)(=O)CCNc3cccc4c3C(=O)N(C3CCC(=O)NC3=O)C4=O)cc2)C(=O)Nc2nc(-c3ccccc3)cs2)c1 (stereo partly drawn) [Compound 190, N-[2-(2-[[2-(2,6-dioxopiperidin-3-yl)-1,3-dioxoisoindol-4-yl]amino]ethanesulfonyl)ethyl]-4-[[(2S)-2-[(1-methanesulfonylpyrrol-3-yl)formamido]-2-[(4-phenyl-1,3-thiazol-2-yl)carbamoyl]ethoxy]methyl]benzamide] | > 10 | < 50 | > 10 | C (‘C’ = Maximum degradation <50%) | –
CS(=O)(=O)n1ccc(C(=O)N[C@@H](COCc2ccc(C(=O)N3CCN(CCOc4ccc5c(c4)C(=O)N(C4CCC(=O)NC4=O)C5=O)CC3)cc2)C(=O)Nc2nc(-c3ccccc3)cs2)c1 (stereo partly drawn) [Compound 191, (2S)-3-([4-[4-(2-[[2-(2,6-dioxopiperidin-3-yl)-1,3-dioxoisoindol-5-yl]oxy]ethyl)piperazine-1-carbonyl]phenyl]methoxy)-2-[(1-methanesulfonylpyrrol-3-yl)formamido]-N-(4-phenyl-1,3-thiazol-2-yl)propanamide; formic acid] | > 10 | < 50 | > 10 | C (‘C’ = Maximum degradation <50%) | –
CS(=O)(=O)n1ccc(C(=O)N[C@@H](COCc2ccc(C(=O)N3CCC(CN4CCN(c5ccc6c(c5)C(=O)N(C5CCC(=O)NC5=O)C6=O)CC4)CC3)cc2)C(=O)Nc2nc(-c3ccccc3)cs2)c1 (stereo partly drawn) [Compound 192, (2S)-3-([4-[4-([4-[2-(2,6-dioxopiperidin-3-yl)-1,3-dioxoisoindol-5-yl]piperazin-1-yl]methyl)piperidine-1-carbonyl]phenyl]methoxy)-2-[(1-methanesulfonylpyrrol-3-yl)formamido]-N-(4-phenyl-1,3-thiazol-2-yl)propanamide; formic acid] | > 10 | < 50 | > 10 | C (‘C’ = Maximum degradation <50%) | –
CS(=O)(=O)n1ccc(C(=O)N[C@@H](COCc2ccc(C(=O)N3CC(CN4CCN(c5ccc6c(c5)C(=O)N(C5CCC(=O)NC5=O)C6=O)CC4)C3)cc2)C(=O)Nc2nc(-c3ccccc3)cs2)c1 (stereo partly drawn) [Compound 193, (2S)-3-([4-[3-([4-[2-(2,6-dioxopiperidin-3-yl)-1,3-dioxoisoindol-5-yl]piperazin-1-yl]methyl)azetidine-1-carbonyl]phenyl]methoxy)-2-[(1-methanesulfonylpyrrol-3-yl)formamido]-N-(4-phenyl-1,3-thiazol-2-yl)propanamide; formic acid] | 0.1 to 1 | > 75 | 0.1 to 1 | B (‘B’ = Maximum degradation ≥50% and ≤75%) | –
CS(=O)(=O)n1ccc(C(=O)N[C@@H](COCc2ccc(C(=O)N3CC(Oc4ccc5c(c4)C(=O)N(C4CCC(=O)NC4=O)C5=O)C3)cc2)C(=O)Nc2nc(-c3ccccc3)cs2)c1 (stereo partly drawn) [Compound 194, N-((2S)-3-((4-(3-((2-(2,6-dioxopiperidin-3-yl)-1,3-dioxoisoindolin-5-yl)oxy)azetidine-1-carbonyl)benzyl)oxy)-1-oxo-1-((4-phenylthiazol-2-yl)amino)propan-2-yl)-1-(methylsulfonyl)-1H-pyrrole-3-carboxamide] | > 10 | < 50 | > 10 | C (‘C’ = Maximum degradation <50%) | –
CS(=O)(=O)n1ccc(C(=O)N[C@@H](COCc2ccc(C(=O)N3CCC(CCCCN4CCN(c5ccc6c(c5)C(=O)N(C5CCC(=O)NC5=O)C6=O)CC4)CC3)cc2)C(=O)Nc2nc(-c3ccccc3)cs2)c1 (stereo partly drawn) [Compound 195, N-((2S)-3-((4-(4-(4-(4-(2-(2,6-dioxopiperidin-3-yl)-1,3-dioxoisoindolin-5-yl)piperazin-1-yl)butyl)piperidine-1-carbonyl)benzyl)oxy)-1-oxo-1-((4-phenylthiazol-2-yl)amino)propan-2-yl)-1-(methylsulfonyl)-1H-pyrrole-3-carboxamide formate] | > 10 | < 50 | > 10 | C (‘C’ = Maximum degradation <50%) | –
CS(=O)(=O)n1ccc(C(=O)N[C@@H](COCc2ccc(C(=O)NCCOCCOCCNC(=O)COc3cccc4c3C(=O)N(C3CCC(=O)NC3=O)C4=O)cc2)C(=O)Nc2nc(-c3ccccc3)cs2)c1 (stereo partly shown) [Compound 196] | > 10 | < 50 | > 10 | C (‘C’ = Maximum degradation <50%) | –
CS(=O)(=O)n1ccc(C(=O)N[C@@H](COCc2ccc(C(=O)N3CC(COc4cccc5c4C(=O)N(C4CCC(=O)NC4=O)C5=O)C3)cc2)C(=O)Nc2nc(-c3ccccc3)cs2)c1 (stereo partly drawn) [Compound 197, (2S)-3-([4-[3-([[2-(2,6-dioxopiperidin-3-yl)-1,3-dioxoisoindol-4-yl]oxy]methyl)azetidine-1-carbonyl]phenyl]methoxy)-2-[(1-methanesulfonylpyrrol-3-yl)formamido]-N-(4-phenyl-1,3-thiazol-2-yl)propanamide] | > 10 | < 50 | > 10 | C (‘C’ = Maximum degradation <50%) | –
CS(=O)(=O)n1ccc(C(=O)N[C@@H](COCc2ccc(C(=O)N3CC(COc4ccc5c(c4)C(=O)N(C4CCC(=O)NC4=O)C5=O)C3)cc2)C(=O)Nc2nc(-c3ccccc3)cs2)c1 (stereo partly drawn) [Compound 198, (2S)-3-([4-[3-([[2-(2,6-dioxopiperidin-3-yl)-1,3-dioxoisoindol-5-yl]oxy]methyl)azetidine-1-carbonyl]phenyl]methoxy)-2-[(1-methanesulfonylpyrrol-3-yl)formamido]-N-(4-phenyl-1,3-thiazol-2-yl)propanamide] | – | – | > 10 | C (‘C’ = Maximum degradation <50%) | > 10
CS(=O)(=O)n1ccc(C(=O)N[C@@H](COCc2ccc(C(=O)N3CCC4(CC3)CC(Oc3ccc5c(c3)C(=O)N(C3CCC(=O)NC3=O)C5=O)C4)cc2)C(=O)Nc2nc(-c3ccccc3)cs2)c1 (stereo partly drawn) [Compound 199, (2S)-3-[[4-(2-[[2-(2,6-dioxopiperidin-3-yl)-1,3-dioxoisoindol-5-yl]oxy]-7-azaspiro[3.5]nonane-7-carbonyl)phenyl]methoxy]-2-[(1-methanesulfonylpyrrol-3-yl)formamido]-N-(4-phenyl-1,3-thiazol-2-yl)propanamide] | > 10 | < 50 | > 10 | C (‘C’ = Maximum degradation <50%) | –
